Some test systems named below: RXF 393 renal; HOP-62 NSCLC; UO-31 renal; SF-268 CNS; HCC-2998 colon; SK-MEL-28 melanoma; SW-620 colon; NCI-H226 lung; 786-0 renal; A549 NSCLC; PC-3 prostate; MDA-MB-435; COLO 205 colon; DU-145 prostate.
What all share (assay): NCI-60 cell line screen, 48 h

Our source for the GI50 and TGI values is PubChem BioAssay (NCI).

Each structure is given as a SMILES string.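 In this assay, cells in 96-well plates receive the compound at five concentrations for 48 hours. Endpoints are linearly interpolated between the surrounding concentrations. Abbreviation: GI50, concentration required for 50% inhibition of growth. TGI: total growth inhibition.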 Some results are limits rather than exact numbers.

As for `CC(/C=C/C(=O)c1sc(-n2nc(-c3ccccc3)cc2-c2ccccc2)nc1C)=C\c1ccccc1`, the GI50 with RXF 393 renal, with HOP-62 NSCLC, in the assay on SK-MEL-28 melanoma, with SW-620 colon and with NCI-H226 lung was greater than 100 µM in each case. Further, the TGI in the assay on RXF 393 renal, with HOP-62 NSCLC, in the assay with UO-31 renal, in the assay on SF-268 CNS, with HCC-2998 colon and with SK-MEL-28 melanoma was greater than 100 µM throughout. Moreover, the TGI with SW-620 colon, in the assay with NCI-H226 lung, in the assay on 786-0 renal and in the assay with A549 NSCLC was greater than 100 µM each time.
`CCCc1cc(=O)oc2c(C=O)c(O)cc(O)c12`: the TGI came out at 53 µM with RXF 393 renal; 59.7 µM with HOP-62 NSCLC; 60.2 µM in the assay with UO-31 renal; 76.5 µM in the assay with SF-268 CNS; 33.6 µM in the assay on HCC-2998 colon; 62.8 µM with SK-MEL-28 melanoma. For the same molecule, the TGI in the assay on PC-3 prostate is 59.3 µM; in the assay on SW-620 colon, 56.4 µM; in the assay with MDA-MB-435 it was 55.3 µM; in the assay with 786-0 renal, greater than 100 µM; in the assay with COLO 205 colon it was 40.8 µM; in the assay on DU-145 prostate, 82.2 µM. This molecule gave a TGI with A549 NSCLC greater than 100 µM.
As to `N#CC(/C(=N\NC(=O)c1ccncc1)C(=O)Nc1ccc([N+](=O)[O-])cc1[N+](=O)[O-])c1nc(-c2ccc(Br)cc2)cs1` (configuration not stated), the TGI in the assay with HOP-62 NSCLC, in the assay on UO-31 renal, with SF-268 CNS, in the assay on HCC-2998 colon, in the assay on SK-MEL-28 melanoma and with SW-620 colon was greater than 100 µM throughout. Moreover, the TGI in the assay with 786-0 renal, in the assay with COLO 205 colon and with A549 NSCLC was greater than 100 µM throughout.
On to `CCOC(=O)C[C@@H](C)[C@]1(C(=O)OC)CCCC1=O`, for which the TGI with RXF 393 renal, with HOP-62 NSCLC, in the assay with UO-31 renal, with SF-268 CNS, in the assay on HCC-2998 colon and in the assay on SK-MEL-28 melanoma was greater than 100 µM each time. Moreover, the TGI in the assay with SW-620 colon is greater than 100 µM; with NCI-H226 lung, greater than 100 µM; in the assay on 786-0 renal, greater than 100 µM; in the assay on COLO 205 colon it was greater than 84.2 µM; with A549 NSCLC it was greater than 100 µM.
On to `COc1cc(OC)c2ssc3c(OC)cc(OC)c4ssc1c2-c43`, for which the TGI with RXF 393 renal, in the assay on HOP-62 NSCLC, in the assay on SF-268 CNS, in the assay with HCC-2998 colon, with SK-MEL-28 melanoma and with SW-620 colon was greater than 100 µM in each case. Besides, the TGI with NCI-H226 lung, in the assay on 786-0 renal, with COLO 205 colon and in the assay with A549 NSCLC was greater than 100 µM each time.
Regarding `Cc1ccc2[nH]c3c(C)c4c(c(C)c3c2c1)CN(C)C=C4`, the TGI in the assay on RXF 393 renal was found to be 12.9 µM; in the assay with HOP-62 NSCLC it was 2.71 µM; with UO-31 renal, 19.5 µM; in the assay with SF-268 CNS it was 0.975 µM; in the assay on HCC-2998 colon, 3.52 µM; in the assay with SK-MEL-28 melanoma, 4.03 µM. For the same molecule, the TGI stood at 3 µM with SW-620 colon; 2.13 µM in the assay with NCI-H226 lung; 10.5 µM with 786-0 renal; 1.4 µM in the assay with COLO 205 colon; 2.99 µM in the assay on A549 NSCLC.
As for `COc1ccc(/C=N/N=C(\N)NO)c(Cl)c1O`, the TGI was greater than 100 µM with RXF 393 renal; 72.1 µM with HOP-62 NSCLC; 54.1 µM in the assay on UO-31 renal; greater than 100 µM in the assay with SF-268 CNS; 40.4 µM with HCC-2998 colon; greater than 100 µM in the assay with SK-MEL-28 melanoma. Further, the TGI in the assay on SW-620 colon was greater than 100 µM; with NCI-H226 lung, 38.6 µM; with 786-0 renal, greater than 100 µM; with COLO 205 colon, greater than 100 µM; with A549 NSCLC, 49.6 µM.
Take `CCN1C(=S)n2cccc2C1CC(=O)c1ccc(Cl)cc1` (configuration not stated): the TGI in the assay on RXF 393 renal, in the assay on HOP-62 NSCLC, in the assay with UO-31 renal, in the assay with SF-268 CNS, with HCC-2998 colon and in the assay on SK-MEL-28 melanoma was greater than 100 µM each time. The TGI in the assay on PC-3 prostate, in the assay with SW-620 colon, with MDA-MB-435, with 786-0 renal, with DU-145 prostate and in the assay on A549 NSCLC was greater than 100 µM in each case.
In the case of `COc1ccc(N=Nc2c(C)c(C#N)c(=S)n(C3OC(COC(C)=O)C(OC(C)=O)C(OC(C)=O)C3OC(C)=O)c2C)cc1` (configuration not stated), the TGI in the assay with RXF 393 renal, in the assay with HOP-62 NSCLC, with UO-31 renal, with SF-268 CNS, in the assay with HCC-2998 colon and in the assay on SK-MEL-28 melanoma was greater than 100 µM throughout. For the same molecule, the TGI in the assay with PC-3 prostate was greater than 100 µM; in the assay with SW-620 colon it was greater than 100 µM; in the assay on 786-0 renal, 53 µM; in the assay on COLO 205 colon it was greater than 100 µM; with DU-145 prostate, greater than 100 µM; in the assay on A549 NSCLC, greater than 100 µM.
In the case of `O=C(CSc1nnc(Cc2ccccc2)o1)Nc1cccc(Cl)c1`, the TGI in the assay on RXF 393 renal, in the assay with HOP-62 NSCLC, with UO-31 renal, in the assay on SF-268 CNS, in the assay on HCC-2998 colon and in the assay on SK-MEL-28 melanoma was greater than 100 µM each time. Further, the TGI with SW-620 colon, in the assay on NCI-H226 lung, with 786-0 renal, in the assay on COLO 205 colon and in the assay on A549 NSCLC was greater than 100 µM each time.
For the molecule `CC(=O)NC(CCCCN(Cc1ccccc1)C(=O)NCCCl)C(=O)NCc1ccccc1` (configuration not stated), the TGI with HOP-62 NSCLC, in the assay on UO-31 renal, in the assay with SF-268 CNS, in the assay with HCC-2998 colon, in the assay on SK-MEL-28 melanoma and in the assay on SW-620 colon was greater than 100 µM in each case. Moreover, the TGI in the assay on NCI-H226 lung, with 786-0 renal, with COLO 205 colon and in the assay with A549 NSCLC was greater than 100 µM throughout.
For `O=c1cc(-c2ccccc2)oc2cc(OCC(O)COc3ccc4c(=O)cc(-c5ccccc5)oc4c3)ccc12`, the TGI in the assay with HOP-62 NSCLC was 24.6 µM; in the assay on UO-31 renal it was greater than 100 µM; with SF-268 CNS it was 90.3 µM; in the assay with SK-MEL-28 melanoma, greater than 100 µM; in the assay on SW-620 colon it was greater than 100 µM; with 786-0 renal it was 52 µM. Moreover, the TGI with A549 NSCLC was greater than 100 µM.
